Data: US20060275294A1, “METHOD OF PREVENTION AND TREATMENT OF AGING, AGE-RELATED DISORDERS AND/OR AGE-RELATED MANIFESTATIONS INCLUDING ATHEROSCLEROSIS, PERIPHERAL VASCULAR DISEASE, CORONARY ARTERY DISEASE, OSTEOPOROSIS, ARTHRITIS, TYPE 2 DIABETES, DEMENTIA, ALZHEIMERS DISEASE AND CANCER” (priority 2002, published 2006)
Where two headings read alike, the source gives them in different places.

Columns and labels:
rat models = conditions: meta-analysis of 13 studies; cited from earlier work
sIL6R = conditions: four-day dietary intervention, exchange for LA; cited from earlier work
[1] = test system: rat vascular smooth muscle cells; conditions: cited from earlier work
[2] = test system: esophageal carcinoma cell line CE48T/VGH; conditions: cited from earlier work
[3] = test system: animals with experimental arthritis; conditions: prophylactic or therapeutic treatment; cited from earlier work
leukemic cells = conditions: concentration- and time-dependent; cited from earlier work
[4] = test system: NOD/SCID mice engrafted with human primary leukemic cells; conditions: mouse, in vivo; cited from earlier work
[5] = test system: patients with primary hypercholesterolemia; conditions: cited from earlier work
[6] = 80 mg daily; cited from earlier work
[7] = test system: Zucker lean and fatty rats; conditions: 50 mg/kg/day vs vehicle; cited from earlier work
KK/Ay mice = conditions: mouse, in vivo; cited from earlier work
[8] = test system: human T, B and myeloma tumor cells; conditions: by promoting apoptosis; cited from earlier work
[9] = test system: MCF-7 breast cancer cells; conditions: absence of estradiol; cited from earlier work
[10] = test system: patients with type 2 diabetes; conditions: cited from earlier work
[11] = test system: human prostate carcinoma PC-3 cell line; conditions: cited from earlier work
[12] = test system: cultured human pituitary adenoma cells; set-up: mean inhibition of thymidine uptake (+/−SD inhibition of basal) / mean inhibition of thymidine uptake: unit of the concentration uncertain; conditions: cited from earlier work
[13] = test system: IL-1 beta, IL-6, and TNF-alpha; conditions: cited from earlier work
STAT1 and STAT3 = conditions: cited from earlier work
[14] = test system: New Zealand White rabbits; conditions: cited from earlier work
[15] = test system: experimental diabetic rat model; conditions: cited from earlier work
[16] = 54 mg/day; cited from earlier work
mice = conditions: cited from earlier work
[17] = test system: cultured human astrocytes; conditions: cited from earlier work
[18] = test system: spontaneously hypertensive rats (SHR); conditions: cited from earlier work
T lymphoma cells = conditions: cited from earlier work
[19] = test system: human breast cancer MCF-7 cells; conditions: cited from earlier work
[20] = test system: orthotopic prostate carcinoma model of PC-3 cells in nude mice; conditions: cited from earlier work
[21] = test system: three human pancreatic cancer cell types; conditions: three cell lines; read-out: mean IC(50) proliferation; cited from earlier work
[22] = test system: renal cell carcinoma cell line, GRC-1; conditions: 20 micromol/L, 72 hours; cited from earlier work
[23] = biological target: T1, epidermal growth factor receptor tyrosine kinase (Rattus norvegicus, UniProt G3V6K6); conditions: SHR vs normotensive Wistar rat cells; cited from earlier work
T1 construct: measured thymidine incorporation in epidermal growth factor-stimulated vascular smooth muscle cells; endogenous in cells; host or cells: aortic vascular smooth muscle cells of SHR and normotensive rats

[24] = test system: patients with osteoarthritis; test: Osteoarthritis patients in applicant's clinic; assay type: in vivo, human
[25] = test system: patients with Paget's bone disease; conditions: end of study, cited from earlier work
[26] = test system: diabetic patients with active Charcot neuroarthropathy; conditions: cited from earlier work
Interleukin-6 = conditions: infusion; cited from earlier work
osteoblasts = conditions: cited from earlier work
[27] = severe chronic renal failure or dialysis; cited from earlier work
[28] = test system: human epidermoid head and neck KB and lung H1355 cancer cells; conditions: read-out: IC(50) growth inhibition; 48 h exposure; cited from earlier work
IKK [29] = biological target: T2, IKK (Homo sapiens, UniProt O14920+O15111); conditions: human epithelial cells; cited from earlier work
T2 construct: endogenous in cells; also 'human epithelial cells'

IKK [30] = conditions: 50 to 200 μM, intestinal epithelial cell line; cited from earlier work
STAT-1 = conditions: cited from earlier work
Male Wistar rats = conditions: cited from earlier work
[31] = test system: murine neuron-like cells (N2a) and primary neurons with Swedish mutant APP; conditions: cited from earlier work
Tg APPsw transgenic mice = conditions: mouse, in vivo; cited from earlier work
[32] = test system: mouse mammary carcinoma 4T1 cells; conditions: dose- and time-dependent; cited from earlier work
[33] = test system: MMTV-Her-2/neu NF639 cell; conditions: cited from earlier work
[34] = test system: human epidermoid carcinoma (A431) cells; conditions: cited from earlier work
JB6 cell = conditions: cited from earlier work
NF-kappaB = conditions: cited from earlier work
neutrophil = conditions: in vitro; cited from earlier work

T2 sequence (O14920 whole entry): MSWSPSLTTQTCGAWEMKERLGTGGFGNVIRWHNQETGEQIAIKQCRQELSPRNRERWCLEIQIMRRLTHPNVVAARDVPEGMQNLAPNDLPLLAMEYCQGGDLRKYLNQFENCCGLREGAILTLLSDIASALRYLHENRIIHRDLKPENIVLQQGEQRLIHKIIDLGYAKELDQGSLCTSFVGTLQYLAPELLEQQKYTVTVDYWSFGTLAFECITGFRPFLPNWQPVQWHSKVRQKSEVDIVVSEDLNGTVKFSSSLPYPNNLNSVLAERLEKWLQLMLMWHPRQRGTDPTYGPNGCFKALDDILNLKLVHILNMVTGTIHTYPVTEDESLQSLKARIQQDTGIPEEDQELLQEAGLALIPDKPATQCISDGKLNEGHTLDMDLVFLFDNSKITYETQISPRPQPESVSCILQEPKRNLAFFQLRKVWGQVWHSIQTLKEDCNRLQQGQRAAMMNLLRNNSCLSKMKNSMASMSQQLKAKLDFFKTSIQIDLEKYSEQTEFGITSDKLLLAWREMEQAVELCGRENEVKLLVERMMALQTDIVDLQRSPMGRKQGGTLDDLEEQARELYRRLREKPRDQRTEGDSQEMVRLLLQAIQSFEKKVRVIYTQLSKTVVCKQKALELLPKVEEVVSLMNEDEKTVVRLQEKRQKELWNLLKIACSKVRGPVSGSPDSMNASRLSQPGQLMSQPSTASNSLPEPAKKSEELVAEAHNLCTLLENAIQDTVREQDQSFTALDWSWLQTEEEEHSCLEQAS
T2 sequence (O15111 whole entry): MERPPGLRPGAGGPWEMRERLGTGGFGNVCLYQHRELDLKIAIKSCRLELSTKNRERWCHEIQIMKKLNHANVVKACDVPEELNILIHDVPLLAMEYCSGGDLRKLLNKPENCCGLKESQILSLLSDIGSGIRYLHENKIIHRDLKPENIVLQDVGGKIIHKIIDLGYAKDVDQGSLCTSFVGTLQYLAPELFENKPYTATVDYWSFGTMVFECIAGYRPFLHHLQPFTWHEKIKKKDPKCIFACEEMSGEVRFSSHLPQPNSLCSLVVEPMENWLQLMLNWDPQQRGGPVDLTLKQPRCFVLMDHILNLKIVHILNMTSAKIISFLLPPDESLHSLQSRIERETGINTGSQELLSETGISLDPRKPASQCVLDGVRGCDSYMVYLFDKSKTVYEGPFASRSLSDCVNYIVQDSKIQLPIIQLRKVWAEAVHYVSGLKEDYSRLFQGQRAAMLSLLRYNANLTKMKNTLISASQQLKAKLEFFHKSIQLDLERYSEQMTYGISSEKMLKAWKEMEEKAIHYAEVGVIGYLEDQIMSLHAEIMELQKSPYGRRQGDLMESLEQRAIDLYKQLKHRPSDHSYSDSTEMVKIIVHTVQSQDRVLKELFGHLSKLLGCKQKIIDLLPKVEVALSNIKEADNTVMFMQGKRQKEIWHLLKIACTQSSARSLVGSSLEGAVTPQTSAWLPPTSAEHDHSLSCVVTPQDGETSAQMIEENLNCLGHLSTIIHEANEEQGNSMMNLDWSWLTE
T2 sequence (Q9Y6K9 whole entry partner): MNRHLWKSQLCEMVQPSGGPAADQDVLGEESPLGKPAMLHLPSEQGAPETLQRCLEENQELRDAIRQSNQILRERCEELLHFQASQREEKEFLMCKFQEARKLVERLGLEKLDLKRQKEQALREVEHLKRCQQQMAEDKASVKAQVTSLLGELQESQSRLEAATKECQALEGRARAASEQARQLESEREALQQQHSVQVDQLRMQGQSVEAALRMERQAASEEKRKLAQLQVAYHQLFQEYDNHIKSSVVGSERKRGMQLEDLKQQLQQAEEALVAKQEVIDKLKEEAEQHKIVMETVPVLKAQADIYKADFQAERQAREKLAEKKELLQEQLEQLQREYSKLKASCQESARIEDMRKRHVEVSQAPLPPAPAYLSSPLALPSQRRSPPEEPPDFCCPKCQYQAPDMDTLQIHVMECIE
T1 sequence (G3V6K6 25-1209): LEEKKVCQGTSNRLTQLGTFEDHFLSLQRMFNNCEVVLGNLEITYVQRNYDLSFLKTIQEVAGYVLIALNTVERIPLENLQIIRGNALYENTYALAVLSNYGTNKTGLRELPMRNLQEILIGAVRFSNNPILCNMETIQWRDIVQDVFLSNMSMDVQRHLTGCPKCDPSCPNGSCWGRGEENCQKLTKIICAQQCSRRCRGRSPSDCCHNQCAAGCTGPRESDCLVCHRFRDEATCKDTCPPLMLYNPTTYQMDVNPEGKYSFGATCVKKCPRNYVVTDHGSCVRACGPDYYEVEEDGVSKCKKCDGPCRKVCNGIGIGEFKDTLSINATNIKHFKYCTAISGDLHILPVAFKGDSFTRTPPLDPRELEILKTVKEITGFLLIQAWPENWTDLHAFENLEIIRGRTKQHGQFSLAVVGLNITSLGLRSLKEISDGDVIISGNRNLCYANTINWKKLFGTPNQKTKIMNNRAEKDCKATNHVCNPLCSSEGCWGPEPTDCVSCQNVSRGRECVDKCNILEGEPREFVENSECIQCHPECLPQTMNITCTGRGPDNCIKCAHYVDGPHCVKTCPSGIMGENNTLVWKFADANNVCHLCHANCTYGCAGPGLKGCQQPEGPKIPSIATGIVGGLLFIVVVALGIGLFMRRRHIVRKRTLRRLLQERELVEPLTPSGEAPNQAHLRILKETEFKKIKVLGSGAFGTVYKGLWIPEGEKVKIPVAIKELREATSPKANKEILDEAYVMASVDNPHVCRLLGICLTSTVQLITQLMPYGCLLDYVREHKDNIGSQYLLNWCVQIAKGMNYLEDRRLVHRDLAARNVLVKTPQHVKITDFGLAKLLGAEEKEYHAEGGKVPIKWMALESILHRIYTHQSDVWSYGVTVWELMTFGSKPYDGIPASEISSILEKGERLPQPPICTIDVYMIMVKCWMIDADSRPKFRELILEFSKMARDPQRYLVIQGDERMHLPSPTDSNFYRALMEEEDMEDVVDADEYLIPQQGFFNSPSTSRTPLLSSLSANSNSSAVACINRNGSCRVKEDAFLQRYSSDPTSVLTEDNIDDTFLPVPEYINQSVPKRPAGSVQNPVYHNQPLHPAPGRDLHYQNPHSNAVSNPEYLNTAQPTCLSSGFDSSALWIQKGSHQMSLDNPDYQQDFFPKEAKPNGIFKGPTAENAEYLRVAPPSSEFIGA

CC/C=C\C/C=C\C/C=C\CCCCCCCC(=O)O [ALA, alpha-linolenic acid]
ischemia- and reperfusion-induced arrhythmias (incidence of VT and VF) (rat models): not
reduction of fasting sIL6R concentration (sIL6R): approximately 11%

COc1cccc(-c2cc(=O)c3ccccc3o2)c1N [PD98059]
expression of IL-6 mRNA induced by Ang II [1]: completely abolished
protection of IL-6 against apoptosis [2]: completely blocked

O=P(O)(O)C(O)(Cc1cnc2ccccn12)P(=O)(O)O [YM529]
severity of experimental arthritis [3]: suppressed the severity of disease
growth of leukemic cells incl. P-gp over-expressing cell line (leukemic cells): inhibited the growth
survival [4]: prolonged the survival

CC(C)c1c(C(=O)Nc2ccccc2)c(-c2ccccc2)c(-c2ccc(F)cc2)n1CC[C@@H](O)C[C@@H](O)CC(=O)O [atorvastatin]
FMD ([5]; 2 weeks): higher than baseline
IL-6 levels ([5]; 3 and 9 months vs baseline): significantly reduced
sICAM-1 levels ([5]; FH 80 mg/day, NFH 10 mg/day, 2 weeks to 9 months vs baseline): significantly reduced
carotid IMT [6]: significant IMT regression
increase in glucose infusion rate and glucose disposal (Rd) [7]: approximately two-fold
insulin resistance index (KK/Ay mice): decreased
non-HDL-cholesterol level (KK/Ay mice): significantly decreased
effect on human T, B and myeloma tumor cells [8]: cytotoxic effect
proliferation of MCF-7 cells [9]: inhibit the proliferation
relative risk reduction in the primary endpoint ([10]; 10 mg daily for four years): 37%
rate reduction of major cardiovascular events ([10]; 10 mg daily vs placebo): 37%
patients with at least one major cardiovascular event ([10]; 10 mg daily, n=1428, median follow-up 3.9 years): 83
acute coronary heart disease events reduced ([10]; 10 mg daily): 36%
adverse events ([10]; 10 mg daily): No excess of adverse events
coronary re-vascularisations reduced ([10]; 10 mg daily): 31%
death rate reduced ([10]; 10 mg daily): 27%
major cardiovascular event rate ([10]; 10 mg daily): 1.54 per 100 person-years at risk
rate of stroke reduced ([10]; 10 mg daily): 48%

O=c1c(-c2ccc(O)cc2)coc2cc(O)cc(O)c12 [genistein, 4′,5,7-trihydroxyisoflavone]
IL-6- and OM-mediated effects (growth, resistance to etoposide and cisplatin) [11]: inhibited
mean inhibition of thymidine uptake (+/−SD inhibition of basal) ([12]; 74 (unit uncertain)): 61.96+/−18.96%
mean inhibition of thymidine uptake ([12]; 740 (unit uncertain)): 92.65+/−8.59%
Epidermal growth factor stimulated thymidine uptake ([12]; clinically nonfunctioning adenomas): inhibited
LPS-induced increase in IL-1 beta, IL-6, and TNF-alpha mRNA levels ([13]; 37 microM): completely or more than 80% blocked
LPS activation of NF-kappa B [13]: reduced
LPS-induced IL-6 protein synthesis and IL-6 bioactivity [13]: reduced to baseline levels
CuLDL-induced enhancement of STAT1 and STAT3 Tyr-phosphorylation and DNA-binding activity (STAT1 and STAT3): markedly prevented
average cross sectional area of atherosclerotic lesion ([14]; hyperlipidemic plus genistein diet, 4 and half months): 0.997 mm2
MMP-3 expression ([14]; western blotting, vs HD group): reduction
expression of IL-6 mRNA induced by Ang II [1]: completely abolished
retinal albumin by Western blot ([15]; 300 mg): decreased
retinal vascular leakage of radiolabeled sucrose ([15]; 150 or 300 mg/kg food, 6 months, vs diabetic control): significantly less
attenuating menopause-related bone loss [16]: as effective as hormone replacement therapy
serum levels of autoantibodies to collagen II (mice; immunized mice): significantly lower
DTH reaction to oxazolone and granulocyte-mediated response (mice; vs control mice): significantly suppressed
stimulatory effect of PDGF on sAPPalpha [17]: blocked
wall thickness of the basilar artery ([18]; 1 mg/kg chow, 2 months): reduced the wall thickness significantly
vasodilatation induced by ACh and Y-26763 [18]: significantly improved
nuclear NF-kappa B levels (T lymphoma cells): marked reduction
growth of MCF-7 cells [19]: significantly inhibit the growth
inhibition of primary tumor growth ([20]; combined with radiation 5 Gy): 87%
inhibition of primary tumor growth ([20]; genistein alone, 5 mg/d p.o.): 30%
size of lymph nodes ([20]; genistein alone): increased the size of lymph nodes
IC50 [21]: 223 µM
band of p27, Western blot [22]: 65.4+/−4.7 gray scale value
cells in G2 phase [22]: 26.2%
cells in G(1) phase [22]: 73.8%
50% inhibitory dose (IC50) for thymidine incorporation [23]: higher for the SHR vascular smooth muscle cells

NCCC(O)(P(=O)(O)O)P(=O)(O)O [pamidronate]
pain in patients with osteoarthritis (with and without osteoporosis) [24]: pain reduction
HDL-C increased ([25]; 60 mg intravenous, three cycles every 3 months): 10.3%
LDL-C decreased ([25]; 60 mg intravenous, three cycles): 5.5%
TC/HDL-C decreased [25]: 12.5%
bone ALP and total ALP [25]: significantly fell
Urinary deoxypyridinoline (means+/−SEM) ([26]; single infusion 90 mg, 4 weeks): 4.4+/−0.4 nmol/mmol creatinine
bone-specific alkaline phosphatase ([26]; single infusion 90 mg, after 4 weeks): 14.1+/−1.2 u/l
symptoms ([26]; vs placebo group): improvement
mean serum levels of Interleukin-6 (Interleukin-6): significantly decreased
production by osteoblasts of interleukin-6 (osteoblasts): inhibit
adverse effect of large intravenous dosages [27]: marked hypocalcemia and/or hypophosphatemia
IC50 [28]: 25 µM

Epigallocatechin-3-gallate [EGCG]
TNF-α-mediated IKK activation (IKK [29]): inhibits
IKK activity (IKK [30]): inhibited
INF-γ-induced STAT1 activation (STAT-1; T84 epithelial and THP-1 monocytes/macrophages): significantly reduced
interferon-γ-induced STAT-1 activation (STAT-1; carcinoma-derived cell lines of non-gut origin): blocked
phosphorylation of c-Jun (Male Wistar rats; 10 mg/kg iv then 10 mg/kg/h, all time points): markedly attenuated
Plasma IL-6 and creatine phosphokinase levels (Male Wistar rats; 10 mg/kg iv then 10 mg/kg/h): decreased
myocardial damage and myeloperoxidase activity (Male Wistar rats; 10 mg/kg iv then 10 mg/kg/h): reduced
reperfusion-induced activation of IKK, degradation of IκB-α, activation of NF-κB (Male Wistar rats; rat, in vivo): reduced
reduction of Abeta generation [31]: ≤ 54%
beta-amyloid (Abeta) levels and plaques (Tg APPsw transgenic mice): decreased
cell proliferation and apoptosis [32]: inhibition of cell proliferation
cell growth in culture and soft agar [33]: inhibited
NF-kappaB levels in cytoplasm and nucleus ([34]; 10-80 microM, A431 cells and NHEK): lowering of NF-kappaB levels
cell growth of A431 cells ([34]; dose-dependent, not in NHEK): inhibition of cell growth
EGF- or TPA-induced JB6 cell transformation (JB6 cell): inhibit
activator protein-1 (AP-1) activation (JB6 cell): inhibited
NF-kappaB nuclear translocation and IL-6 secretion induced by UVB and UVA (NF-kappaB): dramatically inhibited
chemokine induced neutrophil chemotaxis (neutrophil): dramatically inhibit
